Measured values: ChEMBL document CHEMBL4308841, “Synthesis, in vitro antiproliferative activity, and kinase inhibitory effects of pyrazole-containing diarylureas and diarylamides” (Eur J Med Chem, 2018)

Columns and labels:
NCI-H226 = test: Growth inhibition of human NCI-H226 cells assessed as cell growth at 0.1 uM incubated for 48 hrs by sulforhodamine B assay relative to control; format: functional; conditions: NCI-H226, 48 h, read-out: Activity
MDA-MB-231 [1] = test: Growth inhibition of human MDA-MB-231 cells incubated for 48 hrs by sulforhodamine B assay; format: functional, cell-based; conditions: MDA-MB-231, 48 h
ACHN = test: Growth inhibition of human ACHN cells assessed as cell growth at 0.01 uM incubated for 48 hrs by sulforhodamine B assay relative to control; format: functional; conditions: read-out: Activity
BT-549 [2] = test: Growth inhibition of human BT549 cells incubated for 48 hrs by sulforhodamine B assay; format: functional, cell-based; conditions: BT-549, 48 h
HCC 2998 = test: Growth inhibition of human HCC2998 cells assessed as cell growth at 0.1 uM incubated for 48 hrs by sulforhodamine B assay relative to control; format: functional; conditions: HCC 2998, 48 h, read-out: Activity
RPMI-8226 = test: Growth inhibition of human RPMI8226 cells assessed as cell growth at 0.1 uM incubated for 48 hrs by sulforhodamine B assay relative to control; format: functional; conditions: RPMI-8226, 48 h, read-out: Activity
CAKI-1 = test: Growth inhibition of human Caki1 cells incubated for 48 hrs by sulforhodamine B assay; format: functional, cell-based; conditions: CAKI-1, 48 h
NCI-H460 = test: Growth inhibition of human NCI-H460 cells incubated for 48 hrs by sulforhodamine B assay; format: functional, cell-based; conditions: NCI-H460, 48 h
HL-60(TB) [3] = test: Growth inhibition of human HL-60(TB) cells assessed as cell growth at 100 uM incubated for 48 hrs by sulforhodamine B assay relative to control; format: functional; conditions: HL-60, 48 h, read-out: Activity
786-0 [4] = test: Growth inhibition of human 786-0 cells assessed as cell growth at 0.01 uM incubated for 48 hrs by sulforhodamine B assay relative to control; format: functional; conditions: 786-0, 48 h, read-out: Activity
PC-3 = test: Growth inhibition of human PC3 cells assessed as cell growth at 100 uM incubated for 48 hrs by sulforhodamine B assay relative to control; format: functional; conditions: PC-3, 48 h, read-out: Activity
BT-549 [5] = test: Growth inhibition of human BT549 cells assessed as cell growth at 0.01 uM incubated for 48 hrs by sulforhodamine B assay relative to control; format: functional; conditions: BT-549, 48 h, read-out: Activity
OVCAR-5 = test: Growth inhibition of human OVCAR5 cells incubated for 48 hrs by sulforhodamine B assay; format: functional, cell-based; conditions: OVCAR-5, 48 h
786-0 [6] = test: Growth inhibition of human 786-0 cells incubated for 48 hrs by sulforhodamine B assay; format: functional, cell-based; conditions: 786-0, 48 h
HL-60(TB) [7] = test: Growth inhibition of human HL-60(TB) cells incubated for 48 hrs by sulforhodamine B assay; format: functional, cell-based; conditions: HL-60, 48 h
OVCAR-4 = test: Growth inhibition of human OVCAR4 cells assessed as cell growth at 0.1 uM incubated for 48 hrs by sulforhodamine B assay relative to control; format: functional; conditions: OVCAR-4, 48 h, read-out: Activity
SNB-19 = test: Growth inhibition of human SNB19 cells assessed as cell growth at 100 uM incubated for 48 hrs by sulforhodamine B assay relative to control; format: functional; conditions: SNB-19, 48 h, read-out: Activity
MDA-MB-231 [8] = test: Growth inhibition of human MDA-MB-231 cells assessed as cell growth at 100 uM incubated for 48 hrs by sulforhodamine B assay relative to control; format: functional; conditions: MDA-MB-231, 48 h, read-out: Activity
MDA-MB-435 = test: Growth inhibition of human MDA-MB-435 cells assessed as cell growth at 1 uM incubated for 48 hrs by sulforhodamine B assay relative to control; format: functional; conditions: MDA-MB-435, 48 h, read-out: Activity
RXF 393 = test: Growth inhibition of human RXF393 cells assessed as cell growth at 1 uM incubated for 48 hrs by sulforhodamine B assay relative to control; format: functional; conditions: RXF 393, 48 h, read-out: Activity
MCF7 = test: Growth inhibition of human MCF7 cells assessed as cell growth at 100 uM incubated for 48 hrs by sulforhodamine B assay relative to control; format: functional; conditions: MCF7, 48 h, read-out: Activity
SN12C = test: Growth inhibition of human SN12C cells incubated for 48 hrs by sulforhodamine B assay; format: functional, cell-based
SF-295 = test: Growth inhibition of human SF295 cells assessed as cell growth at 1 uM incubated for 48 hrs by sulforhodamine B assay relative to control; format: functional; conditions: SF-295, 48 h, read-out: Activity
T47D = test: Growth inhibition of human T47D cells assessed as cell growth at 1 uM incubated for 48 hrs by sulforhodamine B assay relative to control; format: functional; conditions: read-out: Activity
HL-60(TB) [9] = test: Growth inhibition of human HL-60(TB) cells assessed as cell growth at 0.01 uM incubated for 48 hrs by sulforhodamine B assay relative to control; format: functional; conditions: HL-60, 48 h, read-out: Activity
SW-620 = test: Growth inhibition of human SW620 cells assessed as cell growth at 0.1 uM incubated for 48 hrs by sulforhodamine B assay relative to control; format: functional; conditions: SW-620, 48 h, read-out: Activity
NCI-H322M = test: Growth inhibition of human NCI-H322M cells assessed as cell growth at 0.01 uM incubated for 48 hrs by sulforhodamine B assay relative to control; format: functional; conditions: read-out: Activity
MDA-MB-468 = test: Growth inhibition of human MDA-MB-468 cells assessed as cell growth at 0.1 uM incubated for 48 hrs by sulforhodamine B assay relative to control; format: functional; conditions: MDA-MB-468, 48 h, read-out: Activity
[10] = read-out: LC50 (the source's name)
[11] = read-out: pLC50 (the source's name) (converted)

Compound: COc1cc(Cl)cc(-c2nn(-c3cccc(NC(=O)Nc4ccc(Cl)c(Cl)c4)c3)cc2-c2ccncc2)c1
- growth at 0.1 µM (NCI-H226): 96%
- GI50 (MDA-MB-231 [1]; read-out: GI50): 1.87 µM
- CC50 (MDA-MB-231 [1]; [10]): 1.5 µM
- TGI (MDA-MB-231 [1]; read-out: TGI): 45.2 µM
- GI50 (MDA-MB-231 [1]; read-out: pGI50 (converted)): 1.86 µM
- CC50 (MDA-MB-231 [1]; [11]): 15.8 µM
- TGI (MDA-MB-231 [1]; read-out: pTGI (converted)): 4.47 µM
- growth at 0.01 µM (ACHN): 102%
- GI50 (BT-549 [2]; read-out: GI50): 2.52 µM
- CC50 (BT-549 [2]; [10]): > 100 µM
- TGI (BT-549 [2]; read-out: TGI): 62.5 µM
- GI50 (BT-549 [2]; read-out: pGI50 (converted)): 2.63 µM
- CC50 (BT-549 [2]; [11]): > 100 µM
- TGI (BT-549 [2]; read-out: pTGI (converted)): 8.32 µM
- growth at 0.1 µM (HCC 2998): 96%
- growth at 0.1 µM (RPMI-8226): 100%
- GI50 (CAKI-1; read-out: GI50): 2.38 µM
- CC50 (CAKI-1; [10]): > 100 µM
- TGI (CAKI-1; read-out: TGI): 15.7 µM
- GI50 (CAKI-1; read-out: pGI50 (converted)): 2.4 µM
- CC50 (CAKI-1; [11]): > 100 µM
- TGI (CAKI-1; read-out: pTGI (converted)): 16.6 µM
- GI50 (NCI-H460; read-out: GI50): 2.27 µM
- CC50 (NCI-H460; [10]): > 100 µM
- TGI (NCI-H460; read-out: TGI): 13.9 µM
- GI50 (NCI-H460; read-out: pGI50 (converted)): 2.29 µM
- CC50 (NCI-H460; [11]): > 100 µM
- TGI (NCI-H460; read-out: pTGI (converted)): 13.8 µM
- growth at 100 µM (HL-60(TB) [3]): -30%
- growth at 0.01 µM (786-0 [4]): 100%
- growth at 100 µM (PC-3): -24%
- growth at 0.01 µM (BT-549 [5]): 96%
- GI50 (OVCAR-5; read-out: GI50): 4.3 µM
- CC50 (OVCAR-5; [10]): > 100 µM
- TGI (OVCAR-5; read-out: TGI): > 100 µM
- GI50 (OVCAR-5; read-out: pGI50 (converted)): 4.37 µM
- CC50 (OVCAR-5; [11]): > 100 µM
- TGI (OVCAR-5; read-out: pTGI (converted)): > 100 µM
- GI50 (786-0 [6]; read-out: GI50): 2.31 µM
- CC50 (786-0 [6]; [10]): > 100 µM
- TGI (786-0 [6]; read-out: TGI): 75.4 µM
- GI50 (786-0 [6]; read-out: pGI50 (converted)): 2.29 µM
- CC50 (786-0 [6]; [11]): > 100 µM
- TGI (786-0 [6]; read-out: pTGI (converted)): 7.76 µM
- GI50 (HL-60(TB) [7]; read-out: GI50): 2.19 µM
- LC50 (HL-60(TB) [7]; read-out: LC50): > 100 µM
- TGI (HL-60(TB) [7]; read-out: TGI): 55.8 µM
- GI50 (HL-60(TB) [7]; read-out: pGI50 (converted)): 2.19 µM
- LC50 (HL-60(TB) [7]; read-out: pLC50 (converted)): > 100 µM
- TGI (HL-60(TB) [7]; read-out: pTGI (converted)): 5.62 µM
- growth at 0.1 µM (OVCAR-4): 95%
- growth at 100 µM (SNB-19): 10%
- growth at 100 µM (MDA-MB-231 [8]): -70%
- growth at 1 µM (MDA-MB-435): 85%
- growth at 1 µM (RXF 393): 75%
- growth at 100 µM (MCF7): -13%
- GI50 (SN12C; read-out: GI50): 3.1 µM
- LC50 (SN12C; read-out: LC50): > 100 µM
- TGI (SN12C; read-out: TGI): > 100 µM
- GI50 (SN12C; read-out: pGI50 (converted)): 3.09 µM
- LC50 (SN12C; read-out: pLC50 (converted)): > 100 µM
- TGI (SN12C; read-out: pTGI (converted)): > 100 µM
- growth at 1 µM (SF-295): 70%
- growth at 1 µM (T47D): 87%
- growth at 0.01 µM (HL-60(TB) [9]): 99%
- growth at 0.1 µM (SW-620): 97%
- growth at 0.01 µM (NCI-H322M): 101%
- growth at 0.1 µM (MDA-MB-468): 97%
